Consider four compounds from patent US10398789B2, “Methods, compositions and kits for providing a therapeutic treatment” (priority 2010, dated 2019).

Molecules are shown by their SMILES.

The subject of experiment [1] is grade IV glioblastoma (GBM). The experiment is described as follows: Brain MRI tumor response, glioblastoma subject (Example 1). The settings on record: Example 1, tumor recurrence about two years later; regimen as labelled. Type of experiment: in vivo, human.
Experiment [2] in a line: Free T4 / TSH monitoring under hypothyroid induction therapy, glioblastoma subject (Example 1). It is filed as in vivo, human. The settings on record: Example 1 GBM subject; PTU 600 mg/day in parallel with temozolomide; after about 12 weeks of treatment.
Method: Shortly thereafter carboplatin treatment (7 mg/kg) was initiated along with continuation of the thyroid reduction therapy, using 600 mg/day PTU.
In order to achieve hypothyroxinemia, in addition to PTU, 5 μg of triiodotionine (T3) was added 3 times a day in order to inhibit TSH and reduce thyroxine level.
The test system of experiment [3] is cancer. The experiment is described as follows: Growth of cancer in treated cancer patients (summary of empirical findings). Type of experiment: in vivo, human. The settings on record: Cytomel at 5-40 μg/day. The source says: (§1) These clinical findings correlated with the subject being at a state of moderate hypothyroidism, as indicated by the low levels (below normal) of T4 in the subject's blood and above normal values of TSH; • combined treatment of cancer subjects with an anti-thyroid agent, such as methimazole or PTU, in combination with Cytomel®, slowed tumor growth and/or enhanced sensitivity of the tumor cells to chemotherapy and/or radiation therapy.

Experiment [4] can be described thus: T4 / FT4 levels in treated cancer patients (summary of empirical findings). It is filed as in vivo, human. The settings on record: Cytomel at 5-40 μg/day.
From the text: as §1

Experiment [5] has as its system malignant fibrous histiocytoma (MFH) of the left pulmonary vein. The experiment is described as follows: Tumor size / mass, subject with malignant fibrous histiocytoma (Example 2). As to conditions: methimazole 40 mg/day with palliative radiation (46Gy), after 2 months.
Experiment [6] is described as follows: Free T4 level, subject with malignant fibrous histiocytoma (Example 2). As to conditions: methimazole 40 mg/day with palliative radiation (46Gy), after 2 months. Type of experiment: in vivo, human. As for the experimental part:
The subject was maintained on Cytomel® 5 μg, three times a day and methimazole (reduced to 30 mg once a day).

As for `N.N.O=C([O-])C1(C(=O)[O-])CCC1.[Pt+2]` [carboplatin], the “tumor response on MRI at recurrence” value in experiment [1] was “no response”.

Turning to `CCCc1cc(=O)[nH]c(=S)[nH]1` [PTU, propylthiouracil], the T4 levels entry in experiment [2] is “slightly reduced”.

Turning to `N[C@@H](Cc1cc(I)c(Oc2ccc(O)c(I)c2)c(I)c1)C(=O)O` [Cytomel®, Liothyronine sodium], the “growth of the cancer” value in experiment [3] is “slows the growth of the cancer”. Also, the T4 levels result in experiment [4] is reported as “decrease in T4 levels”.

`Cn1cc[nH]c1=S` [methimazole]: in experiment [5], the tumor size result is reported as “no change”. Besides, the “free T4 level” value in experiment [6] was “no change”.
